From the kinase profiling compilation of Christmann-Franck et al. (2016)

Key:
Experiment in all cases: radiometric filter-binding kinase assay
TBK1 (human) = TBK1 (human) (UniProt Q9UHD2)
INSRR (human) = INSRR (human) (UniProt P14616)
PHKG1 (human) = PHKG1 (human) (UniProt Q16816)
PRKCZ (human) = PRKCZ (human) (UniProt Q05513)
HIPK2 (human) = HIPK2 (human) (UniProt Q9H2X6)
MELK (human) = MELK (human) (UniProt Q14680)
SYK (human) = SYK (human) (UniProt P43405)
MST4 (human) = MST4 (human) (UniProt Q9P289)
PIM1 (human) = PIM1 (human) (UniProt P11309)
MAPK15 (human) = MAPK15 (human) (UniProt Q8TD08)
RPS6KA1 KD1 KD2 (human) = RPS6KA1 KD1 KD2 (human) (UniProt Q15418)
NEK2 (human) = NEK2 (human) (UniProt P51955)
GSK3B (human) = GSK3B (human) (UniProt P49841)
FGFR1 (human) = FGFR1 (human) (UniProt P11362)
RPS6KA3 KD1 KD2 (human) = RPS6KA3 KD1 KD2 (human) (UniProt P51812)
PRKACA (human) = PRKACA (human) (UniProt P17612)
EEF2K (human) = EEF2K (human) (UniProt O00418)
CHEK2 (human) = CHEK2 (human) (UniProt O96017)
BRSK2 (human) = BRSK2 (human) (UniProt Q8IWQ3)
PAK6 (human) = PAK6 (human) (UniProt Q9NQU5)
DYRK3 (human) = DYRK3 (human) (UniProt O43781)
MAP2K1 (human) = MAP2K1 (human) (UniProt Q02750)
MAPK11 (human) = MAPK11 (human) (UniProt Q15759)
NEK6 (human) = NEK6 (human) (UniProt Q9HC98)
MAPK8 (human) = MAPK8 (human) (UniProt P45983)
CDK2 CCNA2 (human) = CDK2 CCNA2 (human) (UniProt P20248+P24941)
MKNK1 (human) = MKNK1 (human) (UniProt Q9BUB5)
MYLK (human) = MYLK (human) (UniProt Q15746)
PKN2 (human) = PKN2 (human) (UniProt Q16513)
STK3 (human) = STK3 (human) (UniProt Q13188)
MAPK14 (human) = MAPK14 (human) (UniProt Q16539)
MAPK3 (human) = MAPK3 (human) (UniProt P27361)
MAPK9 (human) = MAPK9 (human) (UniProt P45984)
DYRK2 (human) = DYRK2 (human) (UniProt Q92630)
SRC (human) = SRC (human) (UniProt P12931)
MAPK1 (human) = MAPK1 (human) (UniProt P28482)
PIM2 (human) = PIM2 (human) (UniProt Q9P1W9)
AURKB (human) = AURKB (human) (UniProt Q96GD4)
CSNK2A1 (human) = CSNK2A1 (human) (UniProt P68400)
PIM3 (human) = PIM3 (human) (UniProt Q86V86)

Chain of INSRR (human) (P14616 whole entry, looked up): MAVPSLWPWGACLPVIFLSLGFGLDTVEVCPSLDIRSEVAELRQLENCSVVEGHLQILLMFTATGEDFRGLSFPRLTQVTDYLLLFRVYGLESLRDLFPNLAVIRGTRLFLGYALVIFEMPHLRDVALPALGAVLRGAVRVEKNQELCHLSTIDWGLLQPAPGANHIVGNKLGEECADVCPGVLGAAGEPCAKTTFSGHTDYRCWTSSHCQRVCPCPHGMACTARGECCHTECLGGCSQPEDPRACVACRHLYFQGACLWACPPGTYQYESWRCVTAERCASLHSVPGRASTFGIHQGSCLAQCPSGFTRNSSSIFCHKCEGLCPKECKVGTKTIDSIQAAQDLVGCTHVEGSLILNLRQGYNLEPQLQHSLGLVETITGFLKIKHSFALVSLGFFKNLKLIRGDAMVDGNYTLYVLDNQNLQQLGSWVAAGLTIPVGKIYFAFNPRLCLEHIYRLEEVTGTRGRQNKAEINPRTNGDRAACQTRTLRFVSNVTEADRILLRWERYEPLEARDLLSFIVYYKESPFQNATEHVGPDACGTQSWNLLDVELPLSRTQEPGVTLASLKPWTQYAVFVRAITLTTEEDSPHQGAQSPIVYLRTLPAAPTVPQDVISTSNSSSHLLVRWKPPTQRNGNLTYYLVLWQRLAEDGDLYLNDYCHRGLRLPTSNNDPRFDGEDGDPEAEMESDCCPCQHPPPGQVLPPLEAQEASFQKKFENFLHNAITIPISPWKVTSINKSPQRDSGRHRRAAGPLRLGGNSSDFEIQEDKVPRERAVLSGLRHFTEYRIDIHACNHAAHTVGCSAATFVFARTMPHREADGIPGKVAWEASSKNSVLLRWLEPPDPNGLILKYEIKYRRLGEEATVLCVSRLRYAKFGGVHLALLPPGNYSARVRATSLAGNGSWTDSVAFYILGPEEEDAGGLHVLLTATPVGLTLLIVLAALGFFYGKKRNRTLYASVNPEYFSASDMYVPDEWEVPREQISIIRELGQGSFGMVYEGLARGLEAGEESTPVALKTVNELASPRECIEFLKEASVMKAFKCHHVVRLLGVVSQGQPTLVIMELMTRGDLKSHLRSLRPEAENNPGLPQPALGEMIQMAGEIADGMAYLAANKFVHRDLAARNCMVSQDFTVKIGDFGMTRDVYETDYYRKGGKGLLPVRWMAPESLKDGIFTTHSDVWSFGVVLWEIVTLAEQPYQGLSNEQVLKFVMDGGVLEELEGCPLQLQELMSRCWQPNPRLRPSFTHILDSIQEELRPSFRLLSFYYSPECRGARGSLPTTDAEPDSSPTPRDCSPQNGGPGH
Chain of MAPK1 (human) (P28482 whole entry, looked up): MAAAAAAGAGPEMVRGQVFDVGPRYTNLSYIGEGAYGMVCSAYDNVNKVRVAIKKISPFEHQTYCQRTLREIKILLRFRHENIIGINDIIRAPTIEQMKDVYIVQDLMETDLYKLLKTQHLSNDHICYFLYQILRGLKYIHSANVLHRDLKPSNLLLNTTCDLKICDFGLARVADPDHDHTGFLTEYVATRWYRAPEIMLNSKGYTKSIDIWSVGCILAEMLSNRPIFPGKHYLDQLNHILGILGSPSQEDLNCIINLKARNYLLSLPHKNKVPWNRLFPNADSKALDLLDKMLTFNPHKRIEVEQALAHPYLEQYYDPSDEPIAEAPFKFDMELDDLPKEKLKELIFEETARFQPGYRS
Chain of RPS6KA1 KD1 KD2 (human) (Q15418 whole entry, looked up): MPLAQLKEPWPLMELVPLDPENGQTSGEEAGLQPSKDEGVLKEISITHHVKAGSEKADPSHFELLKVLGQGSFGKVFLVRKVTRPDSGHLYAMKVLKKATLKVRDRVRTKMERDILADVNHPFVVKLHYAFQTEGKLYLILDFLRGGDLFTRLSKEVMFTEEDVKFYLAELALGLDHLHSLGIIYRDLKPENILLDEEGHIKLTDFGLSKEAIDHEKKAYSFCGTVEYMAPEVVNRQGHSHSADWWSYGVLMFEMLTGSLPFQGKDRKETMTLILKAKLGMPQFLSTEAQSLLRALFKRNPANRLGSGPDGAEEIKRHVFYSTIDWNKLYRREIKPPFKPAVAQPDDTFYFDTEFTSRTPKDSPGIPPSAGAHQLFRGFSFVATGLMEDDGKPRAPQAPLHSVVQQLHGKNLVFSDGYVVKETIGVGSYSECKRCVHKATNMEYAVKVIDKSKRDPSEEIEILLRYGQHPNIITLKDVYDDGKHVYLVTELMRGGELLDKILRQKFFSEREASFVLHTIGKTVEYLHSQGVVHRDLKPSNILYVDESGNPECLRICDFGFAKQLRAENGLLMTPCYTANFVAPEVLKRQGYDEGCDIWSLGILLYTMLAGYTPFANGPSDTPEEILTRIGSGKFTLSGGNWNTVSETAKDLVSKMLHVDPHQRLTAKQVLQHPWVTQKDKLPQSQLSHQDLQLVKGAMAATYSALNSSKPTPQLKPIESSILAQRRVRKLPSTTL
Chain of EEF2K (human) (O00418 whole entry, looked up): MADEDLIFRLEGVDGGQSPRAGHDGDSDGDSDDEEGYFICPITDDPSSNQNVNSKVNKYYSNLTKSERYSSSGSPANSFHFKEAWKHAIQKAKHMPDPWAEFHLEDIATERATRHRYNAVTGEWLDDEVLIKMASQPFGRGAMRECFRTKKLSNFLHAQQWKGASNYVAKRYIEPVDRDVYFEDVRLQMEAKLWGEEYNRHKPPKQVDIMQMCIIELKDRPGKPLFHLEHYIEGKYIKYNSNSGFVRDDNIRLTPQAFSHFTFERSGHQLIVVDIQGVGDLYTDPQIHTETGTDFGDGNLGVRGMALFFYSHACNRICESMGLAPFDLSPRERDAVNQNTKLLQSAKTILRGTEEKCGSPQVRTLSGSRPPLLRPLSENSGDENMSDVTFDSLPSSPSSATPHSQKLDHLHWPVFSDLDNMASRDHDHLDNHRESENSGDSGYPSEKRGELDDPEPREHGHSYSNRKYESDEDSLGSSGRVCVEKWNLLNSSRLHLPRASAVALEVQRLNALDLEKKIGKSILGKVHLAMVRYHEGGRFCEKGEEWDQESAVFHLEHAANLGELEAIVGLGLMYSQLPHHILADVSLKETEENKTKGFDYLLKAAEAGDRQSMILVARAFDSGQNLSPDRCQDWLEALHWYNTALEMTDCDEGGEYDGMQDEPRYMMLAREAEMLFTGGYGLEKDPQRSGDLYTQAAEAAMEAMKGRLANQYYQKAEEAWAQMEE
Chain of SRC (human) (P12931 whole entry, looked up): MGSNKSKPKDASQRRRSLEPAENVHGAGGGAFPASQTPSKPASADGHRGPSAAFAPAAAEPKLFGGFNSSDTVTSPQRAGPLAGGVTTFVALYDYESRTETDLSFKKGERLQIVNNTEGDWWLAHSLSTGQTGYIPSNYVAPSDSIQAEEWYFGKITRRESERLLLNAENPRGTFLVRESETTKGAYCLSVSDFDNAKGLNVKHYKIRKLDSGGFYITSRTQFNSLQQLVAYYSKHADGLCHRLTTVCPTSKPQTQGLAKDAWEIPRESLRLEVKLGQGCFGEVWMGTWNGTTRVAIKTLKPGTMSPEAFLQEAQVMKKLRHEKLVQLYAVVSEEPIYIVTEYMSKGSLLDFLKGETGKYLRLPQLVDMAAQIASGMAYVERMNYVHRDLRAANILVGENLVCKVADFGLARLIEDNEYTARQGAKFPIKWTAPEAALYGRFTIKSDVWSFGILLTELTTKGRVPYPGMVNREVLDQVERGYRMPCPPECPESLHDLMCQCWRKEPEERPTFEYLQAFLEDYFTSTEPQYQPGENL
Chain of AURKB (human) (Q96GD4 whole entry, looked up): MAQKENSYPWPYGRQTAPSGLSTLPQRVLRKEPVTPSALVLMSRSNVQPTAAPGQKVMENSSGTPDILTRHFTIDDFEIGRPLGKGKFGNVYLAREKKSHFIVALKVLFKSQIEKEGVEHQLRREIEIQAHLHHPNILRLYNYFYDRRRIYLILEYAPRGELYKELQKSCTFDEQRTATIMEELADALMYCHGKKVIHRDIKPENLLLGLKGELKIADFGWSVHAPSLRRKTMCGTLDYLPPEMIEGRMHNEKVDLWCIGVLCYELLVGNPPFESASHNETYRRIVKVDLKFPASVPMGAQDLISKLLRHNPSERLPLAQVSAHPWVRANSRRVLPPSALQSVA
Chain of CSNK2A1 (human) (P68400 whole entry, looked up): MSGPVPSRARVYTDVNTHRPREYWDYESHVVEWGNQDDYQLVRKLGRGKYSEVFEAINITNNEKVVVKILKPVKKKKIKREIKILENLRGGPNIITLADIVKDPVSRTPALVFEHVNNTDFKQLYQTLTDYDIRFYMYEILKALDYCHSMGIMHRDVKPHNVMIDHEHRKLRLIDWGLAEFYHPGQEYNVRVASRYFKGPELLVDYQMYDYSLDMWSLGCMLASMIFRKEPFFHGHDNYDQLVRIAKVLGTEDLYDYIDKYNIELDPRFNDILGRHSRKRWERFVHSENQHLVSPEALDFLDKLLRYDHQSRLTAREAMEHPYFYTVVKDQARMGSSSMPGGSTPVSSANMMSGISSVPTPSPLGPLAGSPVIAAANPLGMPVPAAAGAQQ
Chain of PIM1 (human) (P11309 whole entry, looked up): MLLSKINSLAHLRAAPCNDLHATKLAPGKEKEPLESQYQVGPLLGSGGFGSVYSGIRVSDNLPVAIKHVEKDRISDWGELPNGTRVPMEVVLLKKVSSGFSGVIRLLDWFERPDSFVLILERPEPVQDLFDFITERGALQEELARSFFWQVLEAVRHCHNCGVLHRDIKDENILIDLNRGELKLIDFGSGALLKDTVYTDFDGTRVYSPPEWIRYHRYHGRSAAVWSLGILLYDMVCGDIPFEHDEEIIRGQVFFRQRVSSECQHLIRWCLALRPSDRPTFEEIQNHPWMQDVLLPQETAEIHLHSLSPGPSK
Chain of PIM2 (human) (Q9P1W9 whole entry, looked up): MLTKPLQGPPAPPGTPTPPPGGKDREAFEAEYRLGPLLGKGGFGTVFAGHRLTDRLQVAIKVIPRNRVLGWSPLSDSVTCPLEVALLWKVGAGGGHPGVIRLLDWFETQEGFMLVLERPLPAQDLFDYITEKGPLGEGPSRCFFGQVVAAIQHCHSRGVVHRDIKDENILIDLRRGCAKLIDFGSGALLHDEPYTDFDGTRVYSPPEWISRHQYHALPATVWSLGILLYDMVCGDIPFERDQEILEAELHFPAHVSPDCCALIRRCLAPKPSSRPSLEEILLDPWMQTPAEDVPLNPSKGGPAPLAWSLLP

Oc1ccc2c(c1)oc1c3ccccc3c(O)cc21
residual activity (TBK1 (human); compound 1.0 µM): 80% | residual activity (INSRR (human); compound 1.0 µM): 24% | residual activity (PHKG1 (human); compound 1.0 µM): 45% | residual activity (PRKCZ (human); compound 1.0 µM): 70% | residual activity (HIPK2 (human); compound 1.0 µM): 17% | residual activity (MELK (human); compound 1.0 µM): 20% | residual activity (SYK (human); compound 1.0 µM): 84% | residual activity (MST4 (human); compound 1.0 µM): 86% | residual activity (PIM1 (human); compound 1.0 µM): 10% | residual activity (MAPK15 (human); compound 1.0 µM): 37% | residual activity (RPS6KA1 KD1 KD2 (human); compound 1.0 µM): 83% | residual activity (NEK2 (human); compound 1.0 µM): 98% | residual activity (GSK3B (human); compound 1.0 µM): 77% | residual activity (FGFR1 (human); compound 1.0 µM): 77% | residual activity (RPS6KA3 KD1 KD2 (human); compound 1.0 µM): 40% | residual activity (PRKACA (human); compound 1.0 µM): 101% | residual activity (EEF2K (human); compound 1.0 µM): 85% | residual activity (CHEK2 (human); compound 1.0 µM): 79% | residual activity (BRSK2 (human); compound 1.0 µM): 66% | residual activity (PAK6 (human); compound 1.0 µM): 121% | residual activity (DYRK3 (human); compound 1.0 µM): 17% | residual activity (MAP2K1 (human); compound 1.0 µM): 94% | residual activity (MAPK11 (human); compound 1.0 µM): 87% | residual activity (NEK6 (human); compound 1.0 µM): 77% | residual activity (MAPK8 (human); compound 1.0 µM): 81% | residual activity (CDK2 CCNA2 (human); compound 1.0 µM): 51% | residual activity (MKNK1 (human); compound 1.0 µM): 66% | residual activity (MYLK (human); compound 1.0 µM): 46% | residual activity (PKN2 (human); compound 1.0 µM): 35% | residual activity (STK3 (human); compound 1.0 µM): 64% | residual activity (MAPK14 (human); compound 1.0 µM): 83% | residual activity (MAPK3 (human); compound 1.0 µM): 86% | residual activity (MAPK9 (human); compound 1.0 µM): 102% | residual activity (DYRK2 (human); compound 1.0 µM): 5% | residual activity (SRC (human); compound 1.0 µM): 85% | residual activity (MAPK1 (human); compound 1.0 µM): 106% | residual activity (PIM2 (human); compound 1.0 µM): 40% | residual activity (AURKB (human); compound 1.0 µM): 81% | IC50 (CSNK2A1 (human)): 4 µM | residual activity (CSNK2A1 (human); compound 1.0 µM): 87% | residual activity (PIM3 (human); compound 1.0 µM): 17%

COc1ccc2c(c1)[nH]c1c(C)nccc12
residual activity (TBK1 (human); compound 1.0 µM): 87% | residual activity (INSRR (human); compound 1.0 µM): 23% | residual activity (PHKG1 (human); compound 1.0 µM): 84% | residual activity (PRKCZ (human); compound 1.0 µM): 77% | residual activity (HIPK2 (human); compound 1.0 µM): 68% | residual activity (MELK (human); compound 1.0 µM): 93% | residual activity (SYK (human); compound 1.0 µM): 93% | residual activity (MST4 (human); compound 1.0 µM): 135% | residual activity (PIM1 (human); compound 1.0 µM): 74% | residual activity (MAPK15 (human); compound 1.0 µM): 75% | residual activity (RPS6KA1 KD1 KD2 (human); compound 1.0 µM): 93% | residual activity (NEK2 (human); compound 1.0 µM): 115% | residual activity (GSK3B (human); compound 1.0 µM): 87% | residual activity (FGFR1 (human); compound 1.0 µM): 103% | residual activity (RPS6KA3 KD1 KD2 (human); compound 1.0 µM): 78% | residual activity (PRKACA (human); compound 1.0 µM): 104% | residual activity (EEF2K (human); compound 1.0 µM): 73% | residual activity (CHEK2 (human); compound 1.0 µM): 95% | residual activity (BRSK2 (human); compound 1.0 µM): 107% | residual activity (PAK6 (human); compound 1.0 µM): 107% | residual activity (DYRK3 (human); compound 1.0 µM): 31% | residual activity (MAP2K1 (human); compound 1.0 µM): 102% | residual activity (MAPK11 (human); compound 1.0 µM): 92% | residual activity (NEK6 (human); compound 1.0 µM): 88% | residual activity (MAPK8 (human); compound 1.0 µM): 70% | residual activity (CDK2 CCNA2 (human); compound 1.0 µM): 80% | residual activity (MKNK1 (human); compound 1.0 µM): 81% | residual activity (MYLK (human); compound 1.0 µM): 106% | residual activity (PKN2 (human); compound 1.0 µM): 61% | residual activity (STK3 (human); compound 1.0 µM): 81% | residual activity (MAPK14 (human); compound 1.0 µM): 77% | residual activity (MAPK3 (human); compound 1.0 µM): 102% | residual activity (MAPK9 (human); compound 1.0 µM): 84% | residual activity (DYRK2 (human); compound 1.0 µM): 35% | residual activity (SRC (human); compound 1.0 µM): 109% | residual activity (MAPK1 (human); compound 1.0 µM): 100% | residual activity (PIM2 (human); compound 1.0 µM): 101% | residual activity (AURKB (human); compound 1.0 µM): 94% | IC50 (CSNK2A1 (human)): > 40 µM | residual activity (CSNK2A1 (human); compound 1.0 µM): 83% | residual activity (PIM3 (human); compound 1.0 µM): 74%

Oc1ccc2c(c1)C(O)c1cc(O)ccc1-2
residual activity (TBK1 (human); compound 20.0 µM): 123% | residual activity (INSRR (human); compound 20.0 µM): 47% | residual activity (PHKG1 (human); compound 20.0 µM): 77% | residual activity (PRKCZ (human); compound 20.0 µM): 89% | residual activity (HIPK2 (human); compound 20.0 µM): 62% | residual activity (MELK (human); compound 20.0 µM): 70% | residual activity (SYK (human); compound 20.0 µM): 121% | residual activity (MST4 (human); compound 20.0 µM): 87% | residual activity (PIM1 (human); compound 20.0 µM): 19% | residual activity (MAPK15 (human); compound 20.0 µM): 25% | residual activity (RPS6KA1 KD1 KD2 (human); compound 20.0 µM): 70% | residual activity (NEK2 (human); compound 20.0 µM): 84% | residual activity (GSK3B (human); compound 20.0 µM): 54% | residual activity (FGFR1 (human); compound 20.0 µM): 62% | residual activity (RPS6KA3 KD1 KD2 (human); compound 20.0 µM): 80% | residual activity (PRKACA (human); compound 20.0 µM): 76% | residual activity (EEF2K (human); compound 20.0 µM): 104% | residual activity (CHEK2 (human); compound 20.0 µM): 64% | residual activity (BRSK2 (human); compound 20.0 µM): 96% | residual activity (PAK6 (human); compound 20.0 µM): 90% | residual activity (DYRK3 (human); compound 20.0 µM): 15% | residual activity (MAP2K1 (human); compound 20.0 µM): 122% | residual activity (MAPK11 (human); compound 20.0 µM): 106% | residual activity (NEK6 (human); compound 20.0 µM): 78% | residual activity (MAPK8 (human); compound 20.0 µM): 97% | residual activity (CDK2 CCNA2 (human); compound 20.0 µM): 54% | residual activity (MKNK1 (human); compound 20.0 µM): 71% | residual activity (MYLK (human); compound 20.0 µM): 77% | residual activity (PKN2 (human); compound 20.0 µM): 86% | residual activity (STK3 (human); compound 20.0 µM): 39% | residual activity (MAPK14 (human); compound 20.0 µM): 84% | residual activity (MAPK3 (human); compound 20.0 µM): 100% | residual activity (MAPK9 (human); compound 20.0 µM): 99% | residual activity (DYRK2 (human); compound 20.0 µM): 69% | residual activity (SRC (human); compound 20.0 µM): 70% | residual activity (MAPK1 (human); compound 20.0 µM): 101% | residual activity (PIM2 (human); compound 20.0 µM): 66% | residual activity (AURKB (human); compound 20.0 µM): 75% | IC50 (CSNK2A1 (human)): > 40 µM | residual activity (CSNK2A1 (human); compound 20.0 µM): 52% | residual activity (PIM3 (human); compound 20.0 µM): 21%
